This is an account of results in US20230087118A1, “IMIDAZO[1,2-a][sequence] DERIVATIVES AND THEIR USE IN THE TREATMENT OF DISEASE” (priority 2019, published 2023).

Structures can show the parent of a compound that is named as a salt.

In one assay the target is T1, IRAK4 (Homo sapiens, UniProt Q9NWZ3).
T1 sequence (Q9NWZ3 1-460): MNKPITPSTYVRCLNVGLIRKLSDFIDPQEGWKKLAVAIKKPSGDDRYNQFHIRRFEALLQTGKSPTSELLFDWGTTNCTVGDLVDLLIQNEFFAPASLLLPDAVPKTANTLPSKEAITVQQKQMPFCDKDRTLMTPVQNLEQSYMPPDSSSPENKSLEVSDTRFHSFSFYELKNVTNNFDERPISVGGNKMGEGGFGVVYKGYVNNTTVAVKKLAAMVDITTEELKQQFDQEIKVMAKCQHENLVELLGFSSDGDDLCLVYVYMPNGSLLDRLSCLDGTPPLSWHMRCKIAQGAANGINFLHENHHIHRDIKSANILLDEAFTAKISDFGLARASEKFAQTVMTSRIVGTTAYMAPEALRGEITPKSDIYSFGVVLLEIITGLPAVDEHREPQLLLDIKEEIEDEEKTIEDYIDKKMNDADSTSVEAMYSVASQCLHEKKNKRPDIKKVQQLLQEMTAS
As to the kind of experiment: biochemical.
Details: not given
Turning to `CC(C)Oc1nc2nc(C34COC(C)(C3)C4)cn2cc1C(=O)Nc1cccc(OC(F)F)n1` [Example 411, N-(6-(difluoromethoxy)pyridin-2-yl)-7-isopropoxy-2-(1-methyl-2-oxabicyclo[2.1.1]hexan-4-yl)imidazo[1,2-a]pyrimidine-6-carboxamide], the IC50 was 0.0008 µM. This lies in the sub-nanomolar range. Regarding `CC1CC(Oc2cc3nc(C45COC(C)(C4)C5)cn3cc2C(=O)Nc2ccn(C)n2)C1` (centres unmarked) [Example 549], the IC50 is 0.0034 µM. Turning to `COc1cc2nc(C3CCOCC3)cn2cc1C(=O)Nc1cccc(Cl)c1F` [Example 114], half-maximal inhibition (IC50) was put at 0.0153 µM. `COc1cc2nc(C3CCOCC3)cn2cc1C(=O)Nc1cccc(C)c1F` [Example 110] returned an IC50 of 0.0082 µM. Compound `Cc1nocc1NC(=O)c1cn2cc(C34CCC(C)(C3)OC4)nc2cc1OC(C)C` (centres unmarked) [Example 507, 7-Isopropoxy-2-(1-methyl-2-oxabicyclo[2.2.1]heptan-4-yl)-N-(3-methylisoxazol-4-yl)imidazo[1,2-a]pyridine-6-carboxamide] gave an IC50 of 0.0095 µM. The IC50 values of the last two compounds are within 1.5-fold of each other. In the case of `COc1nc(C(=O)Nc2cccc(C(F)(F)F)n2)cn2cc(C[C@@H]3CCOC3)nc12` (single isomer, unassigned) [Example 70], the IC50 was 0.0169 µM. This IC50 is about 1.8-fold higher than that of the compound before. The same measure, in the same setting: the figure for `CC(C)Oc1nc2nc(C34COC(C)(C3)C4)cn2cc1C(=O)Nc1cccc(OC(F)(F)F)n1` [Example 412, 7-Isopropoxy-2-(1-methyl-2-oxabicyclo[2.1.1]hexan-4-yl)-N-(6-(trifluoromethoxy)pyridin-2-yl)imidazo[1,2-a]pyrimidine-6-carboxamide] is 0.0012 µM. Turning to `COc1ncccc1NC(=O)c1cn2cc([C@@]34CC[C@@](C)(C3)OC4)nc2c(OC)n1` (single isomer, unassigned) [Example 587], inhibition was half-maximal at 0.0032 µM (IC50). `CC(C)Oc1cc2nc(C34COC(C)(C3)C4)cn2cc1C(=O)Nc1cccc2cn(C)nc12` [Example 318, 7-Isopropoxy-N-(2-methyl-2H-indazol-7-yl)-2-(1-methyl-2-oxabicyclo[2.1.1]hexan-4-yl)imidazo[1,2-a]pyridine-6-carboxamide] came in with an IC50 of 0.001 µM. On to `CC(C)Oc1nc2nc(C34COC(C)(C3)C4)cn2cc1C(=O)Nc1nc(C(F)(F)F)cs1` [Example 397, 7-Isopropoxy-2-(1-methyl-2-oxabicyclo[2.1.1]hexan-4-yl)-N-(4-(trifluoromethyl)thiazol-2-yl)imidazo[1,2-a]pyrimidine-6-carboxamide], for which the 50% inhibitory concentration (IC50) came to 0.0134 µM. On the same count and under the same terms, the figure for `Cn1ccc(NC(=O)c2cn3cc([C@@]45CC[C@@](C)(C4)OC5)nc3nc2OC2CCCC2)n1` (single isomer, unassigned) [Example 635] is 0.0026 µM.

The compound `CC(C)Oc1nc2nc(C34COC(C)(C3)C4)cn2cc1C(=O)Nc1cccc(-c2cnco2)n1` [Example 368, 7-Isopropoxy-2-(1-methyl-2-oxabicyclo[2.1.1]hexan-4-yl)-N-(6-(oxazol-5-yl)pyridin-2-yl)imidazo[1,2-a]pyrimidine-6-carboxamide] registered a 50% inhibitory concentration (IC50) of 0.0002 µM. Take `CC(C)Oc1nc2nc([C@@]34CC[C@@](C)(C3)OC4)cn2cc1C(=O)Nc1cccc(C(F)F)n1` (single isomer, unassigned) [Example 576]: the IC50 worked out at 0.0002 µM. The same measure, in the same setting: the value for `CC(C)Oc1cc2nc(C34COC(C)(C3)C4)cn2cc1C(=O)Nc1ccnc2cccnc12` [Example 319, 7-Isopropoxy-2-(1-methyl-2-oxabicyclo[2.1.1]hexan-4-yl)-N-(1,5-naphthyridin-4-yl)imidazo[1,2-a]pyridine-6-carboxamide] was 0.0016 µM; that for `CC(C)Oc1cc2nc(C34COC(C3)C4)cn2cc1C(=O)Nc1cccc(C(F)F)n1` [Example 544, 2-(2-Oxabicyclo[2.1.1]hexan-4-yl)-N-(6-(difluoromethyl)pyridin-2-yl)-7-isopropoxyimidazo[1,2-a]pyridine-6-carboxamide] was 0.0002 µM; that for `CC(C)Oc1nc2nc(C34COC(C)(C3)C4)cn2cc1C(=O)Nc1snc2cccnc12` [Example 376, 7-Isopropoxy-N-(isothiazolo[4,3-b]pyridin-3-yl)-2-(1-methyl-2-oxabicyclo[2.1.1]hexan-4-yl)imidazo[1,2-a]pyrimidine-6-carboxamide] was 0.0018 µM. With `CC12CC(c3cn4cc(C(=O)Nc5cccn(C(F)F)c5=O)c(OCC5CC5(F)F)cc4n3)(CO1)C2` (centres unmarked) [Example 452, 7-((2,2-Difluorocyclopropyl)methoxy)-N-(1-(difluoromethyl)-2-oxo-1,2-dihydropyridin-3-yl)-2-(1-methyl-2-oxabicyclo[2.1.1]hexan-4-yl)imidazo[1,2-a]pyridine-6-carboxamide], half-maximal inhibition (IC50) was put at 0.0008 µM. This IC50 lies about 2.2-fold lower than the previous one.

Compound `C[C@H](Oc1cc2nc(C34COC(C)(C3)C4)cn2cc1C(=O)Nc1cccc(C(F)F)n1)C1CC1` (single isomer, unassigned) [Example 656] came in with an IC50 of 0.0002 µM. `CC(C)Oc1cc2nc([C@]34CC[C@](C)(C3)OC4)cn2cc1C(=O)Nc1cccn(C(F)F)c1=O` (single isomer, unassigned) [Example 625] displayed a half-maximal inhibitory concentration (IC50) of 0.0003 µM. Turning to `CC(C)Oc1nc2nc(C34COC(C)(C3)C4)cn2cc1C(=O)Nc1cccnc1OC(F)F` [Example 389, N-(2-(difluoromethoxy)pyridin-3-yl)-7-isopropoxy-2-(1-methyl-2-oxabicyclo[2.1.1]hexan-4-yl)imidazo[1,2-a]pyrimidine-6-carboxamide], the IC50 amounted to 0.0032 µM. Compound `CC(C)Oc1nc2nc(C34CCC(C)(CC3)CO4)cn2cc1C(=O)Nc1ccn(C)n1` [Example 566, 7-Isopropoxy-N-(1-methyl-1H-pyrazol-3-yl)-2-(4-methyl-2-oxabicyclo[2.2.2]octan-1-yl)imidazo[1,2-a]pyrimidine-6-carboxamide] showed an IC50 of 0.0009 µM.

In turn, `CC12CC(c3cn4cc(C(=O)Nc5ccn(CC6CC6)n5)c(OC5CCC5)cc4n3)(CO1)C2` [Example 525, 7-Cyclobutoxy-N-(1-(cyclopropylmethyl)-1H-pyrazol-3-yl)-2-(1-methyl-2-oxabicyclo[2.1.1]hexan-4-yl)imidazo[1,2-a]pyridine-6-carboxamide] had an IC50 of 0.0185 µM. In the case of `COc1nscc1NC(=O)c1cn2cc(C34CCC(C)(C3)OC4)nc2cc1OC(C)C` (centres unmarked) [Example 513, 7-Isopropoxy-N-(3-methoxyisothiazol-4-yl)-2-(1-methyl-2-oxabicyclo[2.2.1]heptan-4-yl)imidazo[1,2-a]pyridine-6-carboxamide], the midpoint of inhibition, the IC50, lay at 0.0003 µM. This IC50 is about 62-fold lower than that of the compound before. `CC(C)Oc1cc2nc(C(F)F)cn2cc1C(=O)Nc1cccc(C(F)F)n1` [Example 99] had a concentration for half-maximal inhibition (IC50) of 0.0073 µM. This IC50 lies about 24-fold higher than the previous one. `CC(C)Oc1nc(C(=O)Nc2ccn(C)n2)cn2cc([C@]34CC[C@](C)(C3)OC4)nc12` (single isomer, unassigned) [Example 593] returned an IC50 of 0.0065 µM. This IC50 and that of the compound before are within 1.5-fold of each other. For `COc1ncccc1NC(=O)c1cn2cc(C34COC(C)(C3)C4)nc2c(OC)n1` [Example 232], half-maximal inhibition (IC50) required 0.0031 µM. As to `COc1ncccc1NC(=O)c1cn2cc(C3CC3)nc2nc1OC(C)C` [Example 283, 2-Cyclopropyl-7-isopropoxy-N-(2-methoxypyridin-3-yl)imidazo[1,2-a]pyrimidine-6-carboxamide], the concentration for half-maximal inhibition (IC50) is 0.0025 µM. This IC50 and that of the compound before are within 1.5-fold of each other. The compound `COc1cc2nc(C3CCOCC3)cn2cc1C(=O)Nc1cnn(C)c1C1CC1` [Example 186] yielded an IC50 of 0.312 µM. `CC1(C)CC(Oc2cc3nc(C4CC4)cn3cc2C(=O)Nc2cccc(C(F)F)n2)C1` [Example 472, 2-Cyclopropyl-N-(6-(difluoromethyl)pyridin-2-yl)-7-(3,3-dimethylcyclobutoxy)imidazo[1,2-a]pyridine-6-carboxamide] registered an IC50 of 0.0064 µM.

The assay is the same for the next values; noted with them: IRAK4 Biochemical Assay (1 mM ATP, 2 h) IC50 (μM), 1 mM ATP, 2 h, 100 pM IRAK4.
The compound `CC(C)Oc1nc2nc(C34COC(C)(C3)C4)cn2cc1C(=O)Nc1cnn2ccc(C(F)F)nc12` [Example 309, N-(5-(difluoromethyl)pyrazolo[1,5-a]pyrimidin-3-yl)-7-isopropoxy-2-(1-methyl-2 oxabicyclo[2.1.1]hexan-4-yl)imidazo[1,2-a]pyrimidine-6-carboxamide trifluoroacetate] had a half-maximal inhibitory concentration (IC50) of 0.0299 µM. On to `COc1cccc(NC(=O)c2cn3cc(C45CCC(C)(C4)OC5)nc3cc2OC)n1` (centres unmarked) [Example 27], for which the IC50 came out at 0.0198 µM. Compared with the last compound, the IC50 is about 1.5-fold lower.

As for `Cn1cccc(NC(=O)c2cn3cc(C4CC4)nc3c(OCCF)n2)c1=O` [Example 637, 2-Cyclopropyl-8-(2-fluoroethoxy)-N-(1-methyl-2-oxo-1,2-dihydropyridin-3-yl)imidazo[1,2-a]pyrazine-6-carboxamide trifluoroacetate], the IC50 was 0.0445 µM.

`CC(C)Oc1nc2nc(C34COC(C)(C3)C4)cn2cc1C(=O)Nc1cccc(N(C)C)n1` [Example 357, N-(6-(dimethylamino)pyridin-2-yl)-7-isopropoxy-2-(1-methyl-2-oxabicyclo[2.1.1]hexan-4-yl)imidazo[1,2-a]pyrimidine-6-carboxamide trifluoroacetate] registered an IC50 of 0.0003 µM. Against the preceding compound, the IC50 is about 150-fold lower.

For `CCOc1nc(C(=O)Nc2cccnc2OC)cn2cc(C3CC3)nc12` [Example 279, 2-Cyclopropyl-8-ethoxy-N-(2-methoxypyridin-3-yl)imidazo[1,2-a]pyrazine-6-carboxamide trifluoroacetate], it took 0.0038 µM to reach half-maximal inhibition (IC50). The compound `CC(C)Oc1cc2nc(C34CCC(C)(CC3)OC4)cn2cc1C(=O)Nc1ccn(C)n1` [Example 571, 7-Isopropoxy-N-(1-methyl-1H-pyrazol-3-yl)-2-(1-methyl-2-oxabicyclo[2.2.2]octan-4-yl)imidazo[1,2-a]pyridine-6-carboxamide] registered a half-maximal inhibitory concentration (IC50) of 0.0017 µM.
